Data on 19 compounds can be found in US10221215B2, “Hydrogen bond surrogate macrocycles as modulators of Ras” (New York University, priority 2011, dated 2019).

Non-standard residues stand in square brackets, D forms with d. Residues, ends and D or L forms follow the SMILES beside them. Aib = CC(C)(N)C(=O)O

A short description of this data set: Solubility of peptides and HBS helices. The data set is classed as physicochemical. Here is the method:
Design of Ras/Sos inhibitors was performed starting with the wild-type Sos929-944 α-H sequence. Additional modifications were introduced in order to improve the solubility of the HBS peptides. Charged residues were introduced at positions not involved in Ras binding. Computational alanine scanning was performed on two separate crystal structures (PDB codes: 1NVW and 1BKD) of the Ras/Sos complex to determine other important binding residues in the α-H helix that may be incorporated in the peptide mimetics. Additionally, non-essential β-branched residues (including threonine) in the wild-type α-H sequence were replaced with suitable residues to afford peptides with higher helical content (Table 1), as it was hypothesized that such modifications would improve α-helicity.

Regarding `CC[C@H](C)[C@H](NC(=O)CN1CC=CCCC(=O)N[C@@H](Cc2ccccc2)C(=O)N[C@@H](CCC(=O)O)C1=O)C(=O)N[C@@H](Cc1ccc(O)cc1)C(=O)N[C@@H](CCCNC(=N)N)C(=O)N[C@@H](CC(C)C)C(=O)N[C@@H](CCC(=O)O)C(=O)N[C@@H](CC(C)C)C(=O)N[C@@H](CC(C)C)C(=O)N[C@@H](CCCCN)C(=O)NC(C)(C)C(=O)N[C@@H](CCC(=O)O)C(=O)N[C@@H](CCC(=O)O)C(=O)NC(C)(C)C(=O)N[C@@H](CC(N)=O)C(N)=O` [HBS 11], the Solubility entry was “soluble”.

Regarding `CC(C)C[C@H](NC(=O)CN1CC=CCCC(=O)N[C@@H](Cc2ccccc2)C(=O)N[C@@H](CCC(=O)O)C1=O)C(=O)N[C@@H](CC(C)C)C(=O)N[C@@H](CCCNC(=N)N)C(=O)N[C@@H](CC(C)C)C(=O)N[C@@H](Cc1c[nH]c2ccccc12)C(=O)N[C@@H](CC(C)C)C(=O)N[C@@H](CCCNC(=N)N)C(=O)N[C@@H](CCCCN)C(=O)N[C@@H](C)C(=O)N[C@@H](CCC(=O)O)C(=O)N[C@@H](CCC(=O)O)C(=O)N[C@@H](C)C(=O)N[C@@H](CC(N)=O)C(N)=O` [HBS 12], the Solubility entry is given as “soluble”.

With `CC[C@H](C)[C@H](NC(=O)[C@H](C)N1CC=CCCC(=O)N[C@@H](Cc2ccccc2)C(=O)N[C@@H](CCC(=O)O)C1=O)C(=O)N[C@@H](Cc1ccc(O)cc1)C(=O)N[C@@H](CCCNC(=N)N)C(=O)N[C@@H](CC(C)C)C(=O)N[C@@H](CCC(=O)O)C(=O)N[C@@H](CC(C)C)C(=O)N[C@@H](CC(C)C)C(=O)N[C@@H](CCCCN)C(=O)N[C@@H](C)C(=O)N[C@@H](CCC(=O)O)C(=O)N[C@@H](CCC(=O)O)C(=O)N[C@@H](C)C(=O)N[C@@H](CC(N)=O)C(N)=O` [HBS 13], the Solubility entry was “soluble”.

As to `CC[C@H](C)[C@H](NC(=O)[C@H](C)N1CC=CCCC(=O)N[C@@H](Cc2ccccc2)C(=O)N[C@@H](CCC(=O)O)C1=O)C(=O)N[C@@H](Cc1ccc(O)cc1)C(=O)N[C@@H](CCCNC(=N)N)C(=O)N[C@@H](CC(C)C)C(=O)N[C@@H](CCC(=O)O)C(=O)N[C@H]1CCCCNC(=O)CC[C@@H](C(=O)N[C@@H](CCC(=O)O)C(=O)N[C@@H](C)C(=O)N[C@@H](CC(N)=O)C(N)=O)NC(=O)[C@H](C)NC(=O)[C@H](CCCCN)NC(=O)[C@H](CC(C)C)NC1=O` [HBS 15], the Solubility entry is recorded as “soluble”.

For the compound `CC[C@H](C)[C@H](NC(=O)CN1CC=CCCC(=O)N[C@@H](Cc2ccccc2)C(=O)N[C@@H](CCC(=O)O)C1=O)C(=O)N[C@@H](Cc1ccc(O)cc1)C(=O)N[C@@H](CCCNC(=N)N)C(=O)N[C@@H](CC(C)C)C(=O)N[C@@H](CCC(=O)O)C(=O)N[C@@H](CCCCN)C(=O)N[C@@H](CC(C)C)C(=O)N[C@@H](CCCCN)C(=O)N[C@@H](C)C(=O)N[C@@H](CCC(=O)O)C(=O)N[C@@H](CCC(=O)O)C(=O)N[C@@H](C)C(=O)N[C@@H](CC(N)=O)C(=O)N[C@@H](CCCNC(=N)N)C(=O)N[C@@H](CCCNC(=N)N)C(N)=O` [HBS 16], the Solubility entry is “soluble”.

`CC(=O)N[C@@H](Cc1ccccc1)C(=O)N[C@@H](CCC(=O)O)C(=O)NCC(=O)N[C@@H](CC(C)C)C(=O)N[C@@H](CC(C)C)C(=O)N[C@@H](CCCNC(=N)N)C(=O)N[C@@H](CC(C)C)C(=O)N[C@@H](Cc1c[nH]c2ccccc12)C(=O)N[C@@H](CC(C)C)C(=O)N[C@@H](CCCNC(=N)N)C(=O)N[C@@H](CCCCN)C(=O)NC(C)(C)C(=O)N[C@@H](CCC(=O)O)C(=O)N[C@@H](CCC(=O)O)C(=O)NC(C)(C)C(=O)N[C@@H](CC(N)=O)C(N)=O` [Peptide 10] (Ac-FEGLLRLWLRK[Aib]EE[Aib]N-NH2; N-terminus assumed): the Solubility entry was “soluble”.

On to `CC[C@H](C)[C@H](NC(=O)CNC(=O)[C@H](CCC(=O)O)NC(=O)[C@H](Cc1ccccc1)NC(C)=O)C(=O)N[C@@H](Cc1ccc(O)cc1)C(=O)N[C@@H](CCCNC(=N)N)C(=O)N[C@@H](CC(C)C)C(=O)N[C@@H](CCC(=O)O)C(=O)N[C@@H](CC(C)C)C(=O)N[C@@H](CC(C)C)C(=O)N[C@@H](CCCCN)C(=O)NC(C)(C)C(=O)N[C@@H](CCC(=O)O)C(=O)N[C@@H](CCC(=O)O)C(=O)NC(C)(C)C(=O)N[C@@H](CC(N)=O)C(N)=O` [Peptide 11] (Ac-FEGIYRLELLK[Aib]EE[Aib]N-NH2; N-terminus assumed), for which the Solubility result was “soluble”.

With `CC[C@H](C)[C@H](NC(=O)CNC(=O)[C@H](Cc1ccccc1)NC(=O)[C@H](Cc1ccccc1)NC(C)=O)C(=O)N[C@@H](Cc1ccc(O)cc1)C(=O)N[C@@H](CC(C)C)C(=O)N[C@H](C(=O)N[C@@H](CC(N)=O)C(=O)N[C@H](C(=O)N[C@@H](CC(C)C)C(=O)N[C@@H](CCCCN)C(=O)N[C@H](C(=O)N[C@@H](CCC(=O)O)C(=O)N[C@@H](CCC(=O)O)C(=O)NCC(=O)N[C@@H](CC(N)=O)C(N)=O)[C@@H](C)O)[C@@H](C)CC)[C@@H](C)O` [wt (Sos929-944), reference compound], the Solubility result is “insoluble”.

For the compound “Ac-AEGIYRADILRTEEGN-NH2 (N-terminus assumed) [Peptide 4]”, the Solubility result is listed as “partially”.

Take “Ac-AEGIYRTDILRTEEGN-NH2 (N-terminus assumed) [Peptide 3]”: the Solubility result is given as “partially”.

For the compound “Ac-FEAIYRLEKLKAEEAN-NH2 (N-terminus assumed) [Peptide 15]”, the Solubility entry is listed as “soluble”.

Regarding “Ac-FEAIYRLELLKAEEAN-NH2 (N-terminus assumed) [Peptide 13]”, the Solubility result is given as “soluble”.

Take “Ac-FEGIYRLELLK-NH2 (N-terminus assumed) [Peptide 8]”: the Solubility result is recorded as “soluble”.

“Ac-FEGIYRLELLKAEEAN-NH2 (N-terminus assumed) [Peptide 7]”: the Solubility entry is “soluble”.

As for “Ac-FEGIYRTDILR-NH2 (N-terminus assumed) [Peptide 5]”, the Solubility entry is “soluble”.

As for “Ac-FEGIYRTDILRTEEGN-NH2 (N-terminus assumed) [Peptide 1]”, the Solubility result is on record as “partially”.

Regarding “Ac-FEGIYRTELLKAEEAN-NH2 (N-terminus assumed) [Peptide 6]”, the Solubility result is on record as “soluble”.

For “Ac-FEGLLRLWLRKAEEAN-NH2 (N-terminus assumed) [Peptide 12]”, the Solubility result was “soluble”.

As for “Ac-FGEGIYRTDILRTEEGN-NH2 (N-terminus assumed) [Peptide 2]”, the Solubility entry is given as “partially”.
